Assay results: patent US20230257372A1 (CHONG KUN DANG PHARMACEUTICAL CORP., priority 2020, published 2023)
Where two headings read alike, the source gives them in different places.

Legend:
human recombinant HDAC1 = target: T1, human recombinant HDAC1 (Homo sapiens, UniProt Q13547); test: HDAC1 enzyme activity inhibition (HDAC Fluorimetric Drug Discovery Kit); type: biochemical; details: read-out: HDAC1
T1 construct: purchased Enzo Life Science, Inc. BML-SE456
Outline: (§1)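 Fluorimetric deacetylase read-out. 5-fold compound dilutions; […] enzyme, 10 μM substrate; 30° C, 60 min; developer 30 min.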

human recombinant HDAC6 = target: T2, human recombinant HDAC6 (Homo sapiens, UniProt Q9UBN7); test: HDAC6 enzyme activity inhibition (HDAC Fluorimetric Drug Discovery Kit); type: biochemical
T2 construct: purchased Calbiochem Inc. 382180
T2 sequence (Q9UBN7 1-1215): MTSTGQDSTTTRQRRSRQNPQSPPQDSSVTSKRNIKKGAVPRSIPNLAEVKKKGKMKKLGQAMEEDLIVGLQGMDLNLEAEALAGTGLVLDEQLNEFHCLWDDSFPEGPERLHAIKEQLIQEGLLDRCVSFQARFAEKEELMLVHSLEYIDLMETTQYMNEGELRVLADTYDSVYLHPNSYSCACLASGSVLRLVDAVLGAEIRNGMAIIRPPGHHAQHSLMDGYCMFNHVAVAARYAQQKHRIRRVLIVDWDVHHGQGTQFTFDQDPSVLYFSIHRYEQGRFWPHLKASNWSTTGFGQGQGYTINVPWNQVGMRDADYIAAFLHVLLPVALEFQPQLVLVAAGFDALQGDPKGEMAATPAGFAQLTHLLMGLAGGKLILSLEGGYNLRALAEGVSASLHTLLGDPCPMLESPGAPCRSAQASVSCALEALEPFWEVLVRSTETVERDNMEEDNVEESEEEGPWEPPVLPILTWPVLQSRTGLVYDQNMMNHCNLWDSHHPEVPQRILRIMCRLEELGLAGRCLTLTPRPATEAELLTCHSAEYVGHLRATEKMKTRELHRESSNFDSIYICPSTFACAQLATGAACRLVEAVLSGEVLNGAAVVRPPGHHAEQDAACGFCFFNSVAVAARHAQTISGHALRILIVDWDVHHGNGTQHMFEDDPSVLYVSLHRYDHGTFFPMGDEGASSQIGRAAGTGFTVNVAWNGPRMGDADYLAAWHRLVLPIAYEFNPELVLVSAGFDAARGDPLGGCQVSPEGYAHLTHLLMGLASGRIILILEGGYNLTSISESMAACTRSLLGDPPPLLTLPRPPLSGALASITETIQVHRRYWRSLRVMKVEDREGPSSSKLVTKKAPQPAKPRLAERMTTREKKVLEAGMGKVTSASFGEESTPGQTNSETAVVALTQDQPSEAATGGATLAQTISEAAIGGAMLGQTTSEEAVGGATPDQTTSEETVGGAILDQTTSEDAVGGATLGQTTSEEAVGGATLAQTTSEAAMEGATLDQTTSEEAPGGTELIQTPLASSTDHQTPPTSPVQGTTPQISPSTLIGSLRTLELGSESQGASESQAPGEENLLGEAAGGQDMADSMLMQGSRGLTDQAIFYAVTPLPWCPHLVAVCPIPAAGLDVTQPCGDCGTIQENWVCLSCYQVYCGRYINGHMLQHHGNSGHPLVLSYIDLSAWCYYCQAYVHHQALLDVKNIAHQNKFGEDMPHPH
Outline: as §1

[1] = human recombinant HDAC1, IC50 calculated with GraphPad Prism
[2] = human recombinant HDAC6, IC50 calculated with GraphPad Prism
[3] = human recombinant HDAC1, Fluor de Lys substrate, 30° C. 60 minutes
[4] = human recombinant HDAC6, same protocol as HDAC1

T1 sequence (Q13547 whole entry): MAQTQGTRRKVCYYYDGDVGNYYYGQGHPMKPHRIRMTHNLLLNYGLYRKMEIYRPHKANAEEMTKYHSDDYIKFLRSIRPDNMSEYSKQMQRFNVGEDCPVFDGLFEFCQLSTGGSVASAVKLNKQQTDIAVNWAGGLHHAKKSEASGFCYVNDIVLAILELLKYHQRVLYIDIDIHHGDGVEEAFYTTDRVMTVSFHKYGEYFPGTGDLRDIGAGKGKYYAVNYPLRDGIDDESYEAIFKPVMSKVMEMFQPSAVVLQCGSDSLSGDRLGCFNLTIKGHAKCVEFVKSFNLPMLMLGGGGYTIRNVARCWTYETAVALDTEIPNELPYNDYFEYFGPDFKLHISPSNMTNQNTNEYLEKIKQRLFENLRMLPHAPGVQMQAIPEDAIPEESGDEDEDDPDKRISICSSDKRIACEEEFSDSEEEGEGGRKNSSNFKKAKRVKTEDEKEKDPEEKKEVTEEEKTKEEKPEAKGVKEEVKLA

Row | SMILES | IC50 (human recombinant HDAC1; [1]) [nM] | HDAC6 selectivity (fold) (human recombinant HDAC6; HDAC1 IC50 / HDAC6 IC50) | IC50 (human recombinant HDAC6; [2]) [nM] | IC50 (human recombinant HDAC1; [3]) [nM] | HDAC6 selectivity (fold) (human recombinant HDAC6; HDAC6 over HDAC1) | IC50 (human recombinant HDAC6; [4]) [nM]
1 | CC(C)(C)OC(=O)N1CCC(c2cn(Cc3ccc(-c4nnc(C(F)F)o4)cc3F)nn2)C1 (stereo not drawn) [Compound 3734, Tert-butyl 3-(1-(4-(5-(difluoromethyl)-1,3,4-oxadiazol-2-yl)-2-fluorobenzyl)-1H-1,2,3-triazol-4-yl)pyrrolidin-1-carboxylate] | > 50000 | 500 | 244 |  |  | 
2 | Fc1cc(-c2nnc(C(F)F)o2)cnc1Cn1cc(-c2ccc3cn[nH]c3c2)nn1 [Compound 18919, 2-(6-((4-(1H-indazol-6-yl)-1H-1,2,3-triazol-1-yl)methyl)-5-fluoropyridin-3-yl)-5-(difluoromethyl)-1,3,4-oxadiazole] |  |  |  | > 50000 | 830 | 60.2
3 | CC(C)N1Cc2cccc(-c3cn(Cc4ccc(-c5nnc(C(F)F)o5)cc4)nn3)c2C1 [Compound 4531, 2-(difluoromethyl)-5-(4-((4-(2-isopropylisoindolin-4-yl)-1H-1,2,3-triazol-1-yl)methyl)phenyl)-1,3,4-oxadiazole] |  |  |  | > 50000 | 412 | 121
4 | CC(C)N1C[C@@H]2C[C@H]1CN2c1cccc(-c2cn(Cc3ccc(-c4nnc(C(F)F)o4)cc3)nn2)c1 [Compound 4321, 2-(difluoromethyl)-5-(4-((4-(3-((1S, 4S)-5-isopropyl-2,5-diazabicyclo[2.2.1]heptan-2-yl)phenyl)-1H-1,2,3-triazol-1-yl)methyl)phenyl)-1,3,4-oxadiazole] | > 50000 | 434 | 111 |  |  | 
5 | CC(C)(C)C(=O)N1CCC(c2cn(Cc3ccc(-c4nnc(C(F)F)o4)cn3)nn2)CC1 [Compound 3893, 1-(4-(1-((5-(5-(difluoromethyl)-1,3,4-oxadiazol-2-yl)pyridin-2-yl)methyl)-1H-1,2,3-triazol-4-yl)piperidin-1-yl)-2,2-dimethylpropan-1-one] | > 50000 | 326 | 153 |  |  | 
6 | CN(C(=O)C(C)(C)C)c1cccc(-c2cn(Cc3ccc(-c4nnc(C(F)F)o4)cn3)nn2)c1 [Compound 3889, N-(3-(1-((5-(5-(difluoromethyl)-1,3,4-oxadiazol-2-yl)pyridin-2-yl)methyl)-1H-1,2,3-triazol-4-yl)phenyl)-N-methylpivalamide] | > 50000 | 1210 | 41.3 |  |  | 
7 | FC(F)c1nnc(-c2ccc(Cn3cc(-c4ccc(CN5CC6(COC6)C5)cc4)nn3)nc2)o1 [Compound 4561, 6-(4-(1-((5-(5-(difluoromethyl)-1,3,4-oxadiazol-2-yl)pyridin-2-yl)methyl)-1H-1,2,3-triazol-4-yl)benzyl)-2-oxa-6-azaspiro[3.3]heptane] |  |  |  | > 50000 | 3571 | 14
8 | FC(F)c1nnc(-c2ccc(Cn3cc(-c4ccc(-n5ccnc5)cc4)nn3)nc2)o1 [Compound 4284, 2-(6-((4-(4-(1H-imidazol-1-yl)phenyl)-1H-1,2,3-triazol-1-yl)methyl)pyridin-3-yl)-5-(difluoromethyl)-1,3,4-oxadiazole] | > 50000 | 1915 | 26.1 |  |  | 
9 | FC1CN(Cc2ccc(-c3cn(Cc4ccc(-c5nnc(C(F)F)o5)cn4)nn3)cc2)C1 [Compound 4559, 2-(difluoromethyl)-5-(6-((4-(4-((3-fluoroazetidin-1-yl)methyl)phenyl)-1H-1,2,3-triazol-1-yl)methyl)pyridin-3-yl)-1,3,4-oxadiazole] |  |  |  | > 50000 | 2347 | 21.3
10 | Fc1c(-c2cn(Cc3ccc(-c4nnc(C(F)F)o4)cn3)nn2)cccc1N1CCN(CC2(F)CC2)CC1 [Compound 4600, 2-(difluoromethyl)-5-(6-((4-(2-fluoro-3-(4-((1-fluorocyclopropyl)methyl)piperazin-1-yl)phenyl)-1H-1,2,3-triazol-1-yl)methyl)pyridin-3-yl)-1,3,4-oxadiazole] |  |  |  | > 50000 | 1533 | 32.6
11 | CC1CCN(Cc2c[nH]c3cc(-c4cn(Cc5ccc(-c6nnc(C(F)F)o6)cc5)nn4)ccc23)CC1 [Compound 4492, 2-(difluoromethyl)-5-(4-((4-(3-((4-methylpiperidin-1-yl)methyl)-1H-indol-6-yl)-1H-1,2,3-triazol-1-yl)methyl)phenyl)-1,3,4-oxadiazole] | > 50000 | 3333 | 15 |  |  | 

Other lines, results leading:

Row | IC50 (human recombinant HDAC1; [1]) [nM] | HDAC6 selectivity (fold) (human recombinant HDAC6; HDAC1 IC50 / HDAC6 IC50) | IC50 (human recombinant HDAC6; [2]) [nM] | IC50 (human recombinant HDAC1; [3]) [nM] | HDAC6 selectivity (fold) (human recombinant HDAC6; HDAC6 over HDAC1) | IC50 (human recombinant HDAC6; [4]) [nM] | SMILES
12 | > 50000 | 1358 | 36.8 |  |  |  | CNCc1cccc(-c2cn(Cc3ccc(-c4nnc(C(F)F)o4)cn3)nn2)c1 [Compound 3919, 1-(3-(1-((5-(5-(difluoromethyl)-1,3,4-oxadiazol-2-yl)pyridin-2-yl)methyl)-1H-1,2,3-triazol-4-yl)phenyl)-N-methylmethanamine]
13 |  |  |  | > 50000 | 1628 | 30.7 | NC1(C(=O)Nc2cccc(-c3cn(Cc4ccc(-c5nnc(C(F)F)o5)cn4)nn3)c2)CCC1 [Compound 4498, 1-amino-N-(3-(1-((5-(5-(difluoromethyl)-1,3,4-oxadiazol-2-yl)pyridin-2-yl)methyl)-1H-1,2,3-triazol-4-yl)phenyl)cyclobutan-1-carboxamide]
14 | > 50000 | 1106 | 45.2 |  |  |  | Fc1cc(-c2nnc(C(F)F)o2)ccc1Cn1cc(-c2cccc(NC3CCOCC3)c2)nn1 [Compound 4331, N-(3-(1-(4-(5-(difluoromethyl)-1,3,4-oxadiazol-2-yl)-2-fluorobenzyl)-1H-1,2,3-triazol-4-yl)phenyl)tetrahydro-2H-pyran-4-amine]
15 |  |  |  | > 50000 | 744 | 67.2 | Fc1cc(-c2nnc(C(F)F)o2)ccc1Cn1cc(-c2cccc(N3CCN(CC4CC(F)(F)C4)CC3)c2F)nn1 [Compound 4603, 2-(4-((4-(3-(4-((3,3-difluorocyclobutyl)methyl)piperazin-1-yl)-2-fluorophenyl)-1H-1,2,3-triazol-1-yl)methyl)-3-fluorophenyl)-5-(difluoromethyl)-1,3,4-oxadiazole]
16 |  |  |  | > 50000 | 556 | 89.8 | Fc1cc(-c2nnc(C(F)F)o2)ccc1Cn1cc(-c2ccc(CN3CC[C@H](F)C3)s2)nn1 [Compound 17916]
17 |  |  |  | > 50000 | 367 | 136 | CN1CC(N2CCC(c3cccc(-c4cn(Cc5ncc(-c6nnc(C(F)F)o6)cc5F)nn4)c3)CC2)C1 [Compound 18877, 2-(difluoromethyl)-5-(5-fluoro-6-((4-(3-(1-(1-methylazetidin-3-yl)piperidin-4-yl)phenyl)-1H-1,2,3-triazol-1-yl)methyl)pyridin-3-yl)-1,3,4-oxadiazole]
18 |  |  |  | > 50000 | 308 | 162 | Fc1cc(-c2nnc(C(F)F)o2)ccc1Cn1cc(-c2ccccc2CNC2COC2)nn1 [Compound 4590, N-(2-(1-(4-(5-(difluoromethyl)-1,3,4-oxadiazol-2-yl)-2-fluorobenzyl)-1H-1,2,3-triazol-4-yl)benzyl)oxetan-3-amine]
19 | > 50000 | 1470 | 34 |  |  |  | Fc1cc(-c2nnc(C(F)F)o2)ccc1Cn1cc(-c2cccc(N3C[C@@H]4C[C@H]3CN4C3CCC3)c2)nn1 [Compound 4319, 2-(4-((4-(3-((1S, 4S)-5-cyclobutyl-2,5-diazabicyclo[2.2.1]heptan-2-yl)phenyl)-1H-1,2,3-triazol-1-yl)methyl)-3-fluorophenyl)-5-(difluoromethyl)-1,3,4-oxadiazole]
